Test results from US20060223996A1, “IL-12 modulatory compounds” (Synta Pharmaceuticals Corp., priority 2004, published 2006).

Test system: IL-12
Test: Human in vitro assay: inhibition of IL-12 production in IFNγ/LPS- or IFNγ/SAC-stimulated human PBMC or THP-1 cells (ELISA)
Type: cell-based
Details: read-out: IC50 Range (representative in vitro IC50 data)
Outline: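 Sandwich ELISA for IL-12 (p70, p40) on supernatants collected 18 h after stimulation gave IC50 values; MTS monitored viability. THP-1 cells: IFNγ 100 U/mL priming 22 h, SAC 0.025%. PBMC: IFNγ 30 U/mL for 22 h plus LPS 1 μg/mL, or IFNγ 100 U/mL plus SAC 0.01%. Final DMSO 0.25%.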

Compound | IC50
COCCN(C)c1cc(C(=O)Nc2ccc3c(C(F)(F)F)cc(C(F)(F)F)nc3n2)nc(N2CCOCC2)n1 [Compound 243, 6-[(2-Methoxy-ethyl)-methyl-amino]-2-morpholin-4-yl-pyrimidine-4-carboxylic acid (5,7-bis-trifluoromethyl-[1,8]naphthyridin-2-yl)-amide] | ≥ 1000 nM
CCc1cccc(NC(=O)c2cc(OCCN3CCOCC3)nc(N3CCOCC3)n2)c1 [Compound 46, 2-Morpholin-4-yl-6-(2-morpholin-4-yl-ethoxy)-pyrimidine-4-carboxylic acid (3-ethyl-phenyl)-amide] | ≥ 1000 nM
Cc1cccc(NC(=O)c2cc(OCCN3CCOC3=O)nc(N3CCOCC3)n2)c1 [Compound 44, 2-Morpholin-4-yl-6-[2-(2-oxo-oxazolidin-3-yl)-ethoxy]-pyrimidine-4-carboxylic acid m-tolylamide] | ≥ 1000 nM
Cc1nccc(-c2cccc(NC(=O)c3cc(OCCN4CCOCC4)nc(N4CCOCC4)n3)c2)n1 [Compound 170, 2-Morpholin-4-yl-6-(2-morpholin-4-yl-ethoxy)-pyrimidine-4-carboxylic acid [3-(2-methyl-pyrimidin-4-yl)-phenyl]-amide] | ≥ 1000 nM
O=C(Nc1ccc(C(F)(F)F)cc1)c1cc(NCCN2CCOCC2)nc(N2CCOCC2)n1 [Compound 191, 2-morpholino-6-(2-morpholinoethylamino)-N-(4-(trifluoromethyl)phenyl)pyrimidine-4-carboxamide] | ≥ 1000 nM
Cc1cccc(NC(=O)C(=O)Nc2cc(OCCc3ccccn3)nc(N3CCOCC3)n2)c1 [Compound 85, N-[2-Morpholin-4-yl-6-(2-pyridin-2-yl-ethoxy)-pyrimidin-4-yl]-N′-m-tolyl-oxalamide] | ≥ 1000 nM
Cc1ccc2nc(NC(=O)c3cc(OCCc4ccccn4)nc(N4CCOCC4)n3)sc2c1 [Compound 32, 2-Morpholin-4-yl-6-(2-pyridin-2-yl-ethoxy)-pyrimidine-4-carboxylic acid (6-methyl-benzothiazol-2-yl)-amide] | ≥ 1000 nM
COCCN(C)c1cc(C(=O)Nc2ccc3nc(C)c(C)nc3c2)nc(N2CCOCC2)n1 [Compound 241, 6-[(2-Methoxy-ethyl)-methyl-amino]-2-morpholin-4-yl-pyrimidine-4-carboxylic acid (2,3-dimethyl-quinoxalin-6-yl)-amide] | ≥ 1000 nM
O=C(Nc1ccc2ncsc2c1)c1cc(OCCc2ccccn2)nc(N2CCOCC2)n1 [Compound 36, 2-Morpholin-4-yl-6-(2-pyridin-2-yl-ethoxy)-pyrimidine-4-carboxylic acid benzothiazol-6-ylamide] | ≥ 1000 nM
COCCN(C)c1cc(C(=O)Nc2cc(N(C)C)ccc2F)nc(N2CCOCC2)n1 [Compound 212, N-(5-(dimethylamino)-2-fluorophenyl)-6-((2-methoxyethyl)(methyl)amino)-2-morpholinopyrimidine-4-carboxamide] | ≥ 1000 nM
COCCN(C)c1cc(C(=O)Nc2cc(C(C)(C)C)on2)nc(N2CCOCC2)n1 [Compound 228, 6-[(2-Methoxy-ethyl)-methyl-amino]-2-morpholin-4-yl-pyrimidine-4-carboxylic acid (5-tert-butyl-isoxazol-3-yl)-amide] | ≥ 1000 nM
Cc1cc(C(=O)Nc2nc(OCCc3ccccn3)cc(N3CCOCC3)n2)no1 [Compound 77, 5-Methyl-isoxazole-3-carboxylic acid-[4-morpholin-4-yl-6-(2-pyridin-2-yl-ethoxy)-pyrimidin-2-yl]-amide] | ≥ 1000 nM

Next, values leading:

IC50 | Compound
≥ 1000 nM | O=C(Nc1ccnc(Cl)c1)c1cc(OCCN2CCOCC2)nc(N2CCOCC2)n1 [Compound 149, 2-Morpholin-4-yl-6-(2-morpholin-4-yl-ethoxy)-pyrimidine-4-carboxylic acid (2-chloro-pyridin-4-yl)-amide]
< 1000 nM | Cc1[nH]c2ccc(NC(=O)c3cc(N4CCN(c5ccccn5)CC4)nc(N4CCOCC4)n3)cc2c1C [Compound 90, 2-Morpholin-4-yl-6-(4-pyridin-2-yl-piperazin-1-yl)-pyrimidine-4-carboxylic acid (2,3-dimethyl-1H-indol-5-yl)-amide]
≥ 1000 nM | COCCN(C)c1cc(C(=O)Nc2cccc(-c3nn(C)cc3Br)c2)nc(N2CCOCC2)n1 [Compound 235, 6-[(2-Methoxy-ethyl)-methyl-amino]-2-morpholin-4-yl-pyrimidine-4-carboxylic acid [3-(4-bromo-1-methyl-1H-pyrazol-3-yl)-phenyl]-amide]
≥ 1000 nM | CC(=O)c1cccc(NC(=O)c2cc(OCCN3CCOCC3)nc(N3CCOCC3)n2)c1 [Compound 152, 2-Morpholin-4-yl-6-(2-morpholin-4-yl-ethoxy)-pyrimidine-4-carboxylic acid (3-acetyl-phenyl)-amide]
< 1000 nM | CNc1cc(C(=O)Nc2ccc3[nH]c(C)c(C)c3c2)nc(N2CCOCC2)n1 [Compound 247, N-(2,3-dimethyl-1H-indol-5-yl)-6-(methylamino)-2-morpholino-pyrimidine-4-carboxamide]
< 1000 nM | COCCN(C)c1cc(C(=O)Nc2cccc(N(C)C)c2)nc(N2CCOCC2)c1 [Compound 159, 4-[(2-Methoxy-ethyl)-methyl-amino]-6-morpholin-4-yl-pyridine-2-carboxylic acid (3-dimethylamino-phenyl)-amide]
< 1000 nM | O=C(Nc1cc(OCCN2CCOCC2)nc(N2CCOCC2)n1)Nc1nc2ccc(Cl)cc2o1 [Compound 135, 1-(6-Chloro-benzooxazol-2-yl)-3-[2-morpholin-4-yl-6-(2-morpholin-4-yl-ethoxy)-pyrimidin-4-yl]-urea]
< 1000 nM | N#Cc1cccc(NC(=O)Nc2cc(OCCN3CCOCC3)nc(N3CCOCC3)n2)c1 [Compound 127, 1-(3-Cyano-phenyl)-3-[2-morpholin-4-yl-6-(2-morpholin-4-yl-ethoxy)-pyrimidin-4-yl]-urea]
< 1000 nM | O=C(Nc1ccc2[nH]c3c(c2c1)CCCC3)c1cc(OCCc2cccc[n+]2[O-])nc(N2CCOCC2)n1 [Compound 322, 2-Morpholin-4-yl-6-[2-(1-oxy-pyridin-2-yl)-ethoxy]-pyrimidine-4-carboxylic acid (6,7,8,9-tetrahydro-5H-carbazol-3-yl)-amide]
< 1000 nM | CCn1ccc2ccc(NC(=O)c3cc(OCCN4CCOCC4)nc(N4CCOCC4)n3)cc21 [Compound 220, N-(1-ethyl-1H-indol-6-yl)-2-morpholino-6-(2-morpholinoethoxy)pyrimidine-4-carboxamide]
< 1000 nM | Cc1[nH]c2ccc(NC(=O)c3cc(NCC(=O)N4CCc5ccccc5C4)nc(N4CCOCC4)n3)cc2c1C [Compound 103, 6-[2-(3,4-Dihydro-1H-isoquinolin-2-yl)-2-oxo-ethylamino]-2-morpholin-4-yl-pyrimidine-4-carboxylic acid (2,3-dimethyl-1H-indol-5-yl)-amide]
< 1000 nM | CN(C)c1cccc(NC(=O)c2cc(N(C)CCO)nc(N3CCOCC3)n2)c1 [Compound 303, 6-[(2-Hydroxy-ethyl)-methyl-amino]-2-morpholin-4-yl-pyrimidine-4-carboxylic acid (3-dimethylamino-phenyl)-amide]
< 1000 nM | COCCN(C)c1cc(C(=O)Nc2ccc(F)c(N(C)C)c2)nc(N2CCOCC2)n1 [Compound 215, N-(3-(dimethylamino)-4-fluorophenyl)-6-((2-methoxyethyl)(methyl)amino)-2-morpholinopyrimidine-4-carboxamide]
